pIC50: −log10 of the molar value.
Assays:
[1] = target: cGMP-dependent protein kinase (Eimeria tenella, UniProt Q8MMZ8); test: Inhibition of Eimeria tenella cGMP-dependent protein kinase
[2] = tested on: Eimeria tenella; test: Anticoccidial activity against Eimeria tenella in chickens assessed as reduction of oocysts at 6.25 ppm measured after 8 days by ExMAC assay relative to untreated control; format: functional; design: scale not given: the % may be the effect or the level left
[3] = tested on: Eimeria tenella; test: Anticoccidial activity against Eimeria tenella in chickens assessed as reduction of oocysts at 3.1 ppm measured after 8 days by ExMAC assay relative to untreated control; format: functional; design: scale not given: the % may be the effect or the level left
[4] = tested on: Eimeria acervulina; test: Anticoccidial activity against Eimeria acervulina in chickens assessed as reduction of oocysts at 6.25 ppm measured after 8 days by ExMAC assay relative to untreated control; format: functional; design: scale not given: the % may be the effect or the level left
[5] = tested on: Eimeria acervulina; test: Anticoccidial activity against Eimeria acervulina in chickens assessed as reduction of oocysts at 3.1 ppm measured after 8 days by ExMAC assay relative to untreated control; format: functional; design: scale not given: the % may be the effect or the level left
[6] = tested on: Eimeria mitis; test: Anticoccidial activity against Eimeria mitis in chickens assessed as reduction of oocysts at 6.25 ppm measured after 8 days by ExMAC assay relative to untreated control; format: functional; design: scale not given: the % may be the effect or the level left
[7] = tested on: Eimeria mitis; test: Anticoccidial activity against Eimeria mitis in chickens assessed as reduction of oocysts at 3.1 ppm measured after 8 days by ExMAC assay relative to untreated control; format: functional; design: scale not given: the % may be the effect or the level left
[8] = tested on: Eimeria maxima; test: Anticoccidial activity against Eimeria maxima in chickens assessed as reduction of oocysts at 6.25 ppm measured after 8 days by ExMAC assay relative to untreated control; format: functional; design: scale not given: the % may be the effect or the level left
[9] = tested on: Eimeria maxima; test: Anticoccidial activity against Eimeria maxima in chickens assessed as reduction of oocysts at 3.1 ppm measured after 8 days by ExMAC assay relative to untreated control; format: functional; design: scale not given: the % may be the effect or the level left
[10] = tested on: Eimeria maxima; test: Anticoccidial activity against Eimeria maxima in chickens assessed as reduction of oocysts at 8 ppm measured after 8 days by ExMAC assay relative to untreated control; format: functional; design: scale not given: the % may be the effect or the level left
[11] = tested on: Eimeria maxima; test: Anticoccidial activity against Eimeria maxima in chickens assessed as reduction of oocysts at 6 ppm measured after 8 days by ExMAC assay relative to untreated control; format: functional; design: scale not given: the % may be the effect or the level left
[12] = tested on: Eimeria maxima; test: Anticoccidial activity against Eimeria maxima in chickens assessed as reduction of oocysts at 10 ppm measured after 8 days by ExMAC assay relative to untreated control; format: functional; design: scale not given: the % may be the effect or the level left
[13] = tested on: Eimeria tenella; test: Anticoccidial activity against Eimeria tenella in chickens assessed as reduction of oocysts at 25 ppm measured after 8 days by ExMAC assay relative to untreated control; format: functional; design: scale not given: the % may be the effect or the level left
[14] = tested on: Eimeria tenella; test: Anticoccidial activity against Eimeria tenella in chickens assessed as reduction of oocysts at 12.5 ppm measured after 8 days by ExMAC assay relative to untreated control; format: functional; design: scale not given: the % may be the effect or the level left
[15] = tested on: Eimeria tenella; test: Anticoccidial activity against Eimeria tenella in chickens assessed as reduction of oocysts at 8 ppm measured after 8 days by ExMAC assay relative to untreated control; format: functional; design: scale not given: the % may be the effect or the level left
[16] = tested on: Eimeria tenella; test: Anticoccidial activity against Eimeria tenella in chickens assessed as reduction of oocysts at 6 ppm measured after 8 days by ExMAC assay relative to untreated control; format: functional; design: scale not given: the % may be the effect or the level left
[17] = tested on: Eimeria tenella; test: Anticoccidial activity against Eimeria tenella in chickens assessed as reduction of oocysts at 10 ppm measured after 8 days by ExMAC assay relative to untreated control; format: functional; design: scale not given: the % may be the effect or the level left
[18] = tested on: Eimeria acervulina; test: Anticoccidial activity against Eimeria acervulina in chickens assessed as reduction of oocysts at 25 ppm measured after 8 days by ExMAC assay relative to untreated control; format: functional; design: scale not given: the % may be the effect or the level left
[19] = tested on: Eimeria acervulina; test: Anticoccidial activity against Eimeria acervulina in chickens assessed as reduction of oocysts at 12.5 ppm measured after 8 days by ExMAC assay relative to untreated control; format: functional; design: scale not given: the % may be the effect or the level left
[20] = tested on: Eimeria acervulina; test: Anticoccidial activity against Eimeria acervulina in chickens assessed as reduction of oocysts at 8 ppm measured after 8 days by ExMAC assay relative to untreated control; format: functional; design: scale not given: the % may be the effect or the level left
[21] = tested on: Eimeria acervulina; test: Anticoccidial activity against Eimeria acervulina in chickens assessed as reduction of oocysts at 6 ppm measured after 8 days by ExMAC assay relative to untreated control; format: functional; design: scale not given: the % may be the effect or the level left
[22] = tested on: Eimeria acervulina; test: Anticoccidial activity against Eimeria acervulina in chickens assessed as reduction of oocysts at 10 ppm measured after 8 days by ExMAC assay relative to untreated control; format: functional; design: scale not given: the % may be the effect or the level left
[23] = tested on: Eimeria mitis; test: Anticoccidial activity against Eimeria mitis in chickens assessed as reduction of oocysts at 25 ppm measured after 8 days by ExMAC assay relative to untreated control; format: functional; design: scale not given: the % may be the effect or the level left
[24] = tested on: Eimeria mitis; test: Anticoccidial activity against Eimeria mitis in chickens assessed as reduction of oocysts at 12.5 ppm measured after 8 days by ExMAC assay relative to untreated control; format: functional; design: scale not given: the % may be the effect or the level left
[25] = tested on: Eimeria mitis; test: Anticoccidial activity against Eimeria mitis in chickens assessed as reduction of oocysts at 8 ppm measured after 8 days by ExMAC assay relative to untreated control; format: functional; design: scale not given: the % may be the effect or the level left
[26] = tested on: Eimeria mitis; test: Anticoccidial activity against Eimeria mitis in chickens assessed as reduction of oocysts at 6 ppm measured after 8 days by ExMAC assay relative to untreated control; format: functional; design: scale not given: the % may be the effect or the level left
[27] = tested on: Eimeria mitis; test: Anticoccidial activity against Eimeria mitis in chickens assessed as reduction of oocysts at 10 ppm measured after 8 days by ExMAC assay relative to untreated control; format: functional; design: scale not given: the % may be the effect or the level left
[28] = tested on: Eimeria maxima; test: Anticoccidial activity against Eimeria maxima in chickens assessed as reduction of oocysts at 25 ppm measured after 8 days by ExMAC assay relative to untreated control; format: functional; design: scale not given: the % may be the effect or the level left
[29] = tested on: Eimeria maxima; test: Anticoccidial activity against Eimeria maxima in chickens assessed as reduction of oocysts at 12.5 ppm measured after 8 days by ExMAC assay relative to untreated control; format: functional; design: scale not given: the % may be the effect or the level left

cGMP-dependent protein kinase, sequence (Q8MMZ8 whole entry): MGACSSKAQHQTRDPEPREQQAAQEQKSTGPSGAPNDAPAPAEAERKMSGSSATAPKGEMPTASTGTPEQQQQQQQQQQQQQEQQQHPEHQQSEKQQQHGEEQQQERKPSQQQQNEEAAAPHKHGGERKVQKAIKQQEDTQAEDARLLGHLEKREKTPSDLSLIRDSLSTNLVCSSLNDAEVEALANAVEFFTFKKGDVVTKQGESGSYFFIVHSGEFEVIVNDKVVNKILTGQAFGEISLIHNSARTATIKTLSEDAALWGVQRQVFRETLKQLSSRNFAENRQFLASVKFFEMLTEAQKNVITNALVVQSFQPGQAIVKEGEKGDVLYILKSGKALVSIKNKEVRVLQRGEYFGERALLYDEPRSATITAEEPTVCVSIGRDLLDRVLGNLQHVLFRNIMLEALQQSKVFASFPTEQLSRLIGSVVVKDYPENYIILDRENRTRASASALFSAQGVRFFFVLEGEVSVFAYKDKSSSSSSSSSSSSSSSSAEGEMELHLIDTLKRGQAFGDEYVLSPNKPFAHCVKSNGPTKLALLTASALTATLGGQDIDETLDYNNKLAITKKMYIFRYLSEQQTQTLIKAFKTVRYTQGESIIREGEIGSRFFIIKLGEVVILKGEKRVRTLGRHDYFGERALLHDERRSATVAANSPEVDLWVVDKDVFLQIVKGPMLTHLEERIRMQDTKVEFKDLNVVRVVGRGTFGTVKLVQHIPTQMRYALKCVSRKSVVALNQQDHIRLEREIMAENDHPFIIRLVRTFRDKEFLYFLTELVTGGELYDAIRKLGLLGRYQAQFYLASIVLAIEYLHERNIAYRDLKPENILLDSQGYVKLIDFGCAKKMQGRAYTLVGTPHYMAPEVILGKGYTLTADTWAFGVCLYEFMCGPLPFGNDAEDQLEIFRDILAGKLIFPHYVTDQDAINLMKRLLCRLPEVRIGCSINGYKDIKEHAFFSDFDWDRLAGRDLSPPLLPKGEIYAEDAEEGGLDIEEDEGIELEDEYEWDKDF

Structure (SMILES) | pIC50 [1] | Activity [2] | Activity [4] | Activity [6] | Activity [8] | Activity [10] | Activity [13] | Activity [14] | Activity [15] | Activity [18] | Activity [19] | Activity [20] | Activity [23] | Activity [24] | Activity [25] | Activity [28] | Activity [29] | also measured
CC(c1ccn2c(-c3ccnc(N)n3)c(-c3ccc(F)cc3)nc2c1)N(C)C (stereo not given) | 10.05 | 100% | 100% | 100% | <50% | – | – | – | – | – | – | – | – | – | – | – | – | Activity [3]: 100%; Activity [5]: 80%; Activity [7]: 80%; Activity [9]: 100%
CN(C)CC(C)(C)c1ccn2c(-c3ccnc(N)n3)c(-c3ccc(F)cc3)nc2c1 | 9.70 | <50% | <50% | <50% | <50% | – | 100% | 80% | – | 80% | 80% | – | 80% | <50% | – | <50% | <50% | –
Nc1nccc(-c2c(-c3ccc(F)cc3)nc3cc(C4CCN(CC5CC5)CC4)ccn23)n1 | 10.02 | 80% | 80% | 80% | 80% | – | 100% | 100% | – | 100% | 80% | – | 80% | 80% | – | 80% | 80% | –
CN(C)C(C)(C)c1ccn2c(-c3ccnc(N)n3)c(-c3ccc(F)cc3)nc2c1 | 9.96 | 100% | 100% | 80% | 80% | 100% | – | – | 100% | – | – | 100% | – | – | <50% | – | – | –
CCC(c1ccn2c(-c3ccnc(N)n3)c(-c3ccc(F)cc3)nc2c1)N(C)C (stereo not given) | 9.89 | – | – | – | – | 50% | – | 100% | 50% | – | 100% | 80% | – | 100% | <50% | – | 100% | –

Now from value to molecule, other results behind:

pIC50 [1] | Structure (SMILES) | Activity [2] | Activity [4] | Activity [6] | Activity [8] | Activity [10] | Activity [13] | Activity [14] | Activity [15] | Activity [18] | Activity [19] | Activity [20] | Activity [23] | Activity [24] | Activity [25] | Activity [28] | Activity [29] | also measured
9.96 | CCN1CCC(c2ccn3c(-c4ccnc(N)n4)c(-c4ccc(F)cc4)nc3c2)CC1 | – | – | – | – | 100% | 100% | 100% | 100% | 100% | 80% | 80% | 100% | 100% | 80% | 100% | 100% | Activity [11]: <50%; Activity [12]: 100%; Activity [16]: 100%; Activity [17]: 100%; Activity [21]: <50%; Activity [22]: 80%; Activity [26]: 80%; Activity [27]: 80%
10.36 | CN1CCC(c2ccn3c(-c4ccnc(N)n4)c(-c4ccc(F)cc4)nc3c2)CC1 | – | – | – | – | 100% | 100% | 100% | 100% | 100% | 100% | 80% | 100% | 100% | 80% | 100% | 100% | Activity [11]: 100%; Activity [12]: 100%; Activity [16]: 100%; Activity [17]: 100%; Activity [21]: 80%; Activity [22]: 100%; Activity [26]: 80%; Activity [27]: 100%
